Data published in PubChem BioAssay AID504556 (Southern Research Specialized Biocontainment Screening …, 2011).
Calls of active or inactive are those of the source. How the calls were made is not given here. Residues, ends and D or L forms follow the SMILES beside them. *: point of attachment. Cbz = O=C(OCc1ccccc1)*

How the values were obtained:
[1] = tested on: Mycobacterium tuberculosis H37Rv growth in 7H9 medium; assay: M. tuberculosis H37Rv growth inhibitors – 7H9 medium, purified and synthesized compounds, set 2, dose response (AID 504556); settings: for IC90: measured here: M. tuberculosis growth IC90
[2] = as above; settings: Mycobacterium tuberculosis H37Rv growth in 7H9 medium; at 25 µM (top of the series)

Row | Compound | IC50 [1] | IC90 [1] | growth inhibition [2]
1 | COC(=O)C1CC(=O)N(c2ccc(OCc3ccccc3Cl)cc2)C1 (stereo not given) | 220 nM | 3840 nM | –
2 | Cc1ccc2ccc3ccc(C)nc3c2n1 | 50 nM | 230 nM | –
3 | COC(=O)C(Nc1nc(SCC(=O)NC2CCCCC2)nc2ccccc12)c1ccccc1 (stereo not given) | – | – | 2.12% (inactive)
4 | CCOC(=O)c1ccc(NC(=O)Cn2ncc(Cl)c(Cl)c2=O)cc1 | 70 nM | 480 nM | –
5 | CNc1nc(SCc2ccccc2Cl)nc2c1CCCC2 | 680 nM | 1910 nM | –
6 | Oc1ccccc1/C=N/Nc1ccnc(SCc2ccccc2)n1 | – | – | 19.3% (inactive)
7 | COC(=O)c1ccc(CNc2c(N3CCCC3)c(=O)c2=O)cc1 | – | – | 0.86% (inactive)
8 | c1ccc(/N=C2\N=C(Nc3ccccn3)c3ccccc32)nc1 | < 10 nM | < 10 nM | –
9 | Nc1c(C(=O)NC2CCCCC2)nsc1C(=O)OCC(=O)NC1CCCCC1 | 380 nM | 2090 nM | –
10 | O=C(NCC(c1cccs1)N1CCOCC1)c1cc([N+](=O)[O-])cc([N+](=O)[O-])c1 (stereo not given) | 90 nM | 190 nM | –
11 | O=C(/C=C\c1cccs1)N1CCN(Cc2ccc3c(c2)OCO3)CC1 | 330 nM | 1970 nM | –
12 | CCOC(=O)COn1c2c(c3c4no[n+]([O-])c4ccc31)CCCC2 | 1730 nM | 3680 nM | –
13 | S=c1nc[nH]c2nc[nH]c12 | 950 nM | 1570 nM | –
14 | Cc1cc(Br)ccc1NC(=O)c1cnc(N2CCN(c3ccccn3)CC2)c2ccccc12 | 180 nM | 1470 nM | –
15 | CCc1ccc(/C=C2/C(=O)N(C)C(=S)N2CC(=O)OC)s1 | 190 nM | 3110 nM | –
16 | O=C(/C=C/c1ccccc1)N1CCN(CCN2C(=O)c3cccc4cccc(c34)C2=O)CC1 | 1290 nM | 3470 nM | –
17 | Cc1nc(SCC(=O)NC2CCCCC2)[nH]c(=O)c1C | 40 nM | 1030 nM | –
18 | COC(=O)CCc1nc2c(C#N)c(-c3ccc(Cl)cc3)ccn2n1 | 1110 nM | 2460 nM | –
19 | CCOC(=O)COc1ccc(/C=C2\NC(=S)N(CC)C2=O)cc1 | 820 nM | 6190 nM | –
20 | Cc1cccc(-c2oc3ccc(-c4ccc5c(c4)OCO5)cc3c2C#Cc2cncn2C)c1 | 2360 nM | 3220 nM | –

Row | Compound | IC50 [1] | IC90 [1] | growth inhibition [2]
21 | COC(=O)C(C)Oc1ccc(-c2nccc(-c3ccccn3)n2)cc1 (stereo not given) | 1170 nM | 2590 nM | –
22 | Cc1ccc(NC(=O)C2C3/C=C\CCCCC32)cc1C (stereo not given) | 1490 nM | 4010 nM | –
23 | Cc1nn2c(NCc3ccccn3)cc(C(C)C)nc2c1-c1ccccc1 | 510 nM | 820 nM | –
24 | O=C1C(Br)=Cc2cccc3cccc1c23 | 20 nM | 1080 nM | –
25 | Cc1ccc(C(=O)N/N=C(/CC(=O)c2cccs2)C(F)(F)F)cc1 | 540 nM | 1050 nM | –
26 | Cc1cccc(/C=C/C(=O)c2ccc([N+](=O)[O-])o2)c1 | < 10 nM | < 10 nM | –
27 | COC(=O)c1cc(=O)n(-c2ccc(F)cc2)c(=Nc2ccc(F)cc2)s1 | 150 nM | 1460 nM | –
28 | CCOC(=O)CNC(=O)[C@H](Cc1ccccc1)NC(=O)OCc1ccccc1 (Cbz-Phe-Gly-OEt) | 610 nM | 1220 nM | –
29 | COc1cc(NC(=O)C/C(C)=N/NC(=O)c2ccccn2)c(OC)cc1Cl | 990 nM | 3040 nM | –
30 | CC1CCN(C(=O)C2CCN(c3nnc(-n4cccc4)s3)CC2)CC1 | 890 nM | 2230 nM | –
31 | Cc1ccc2c(c1)c(C1=c3ccccc3=NC1=O)c(O)n2C | 250 nM | 1720 nM | –
32 | CC(C)NC(=O)c1sc(=S)n2c1[nH]c(=O)c1ccc(C(=O)NCCc3ccc(Cl)cc3)cc12 | 80 nM | 230 nM | –
33 | CCOC(=O)C(C)Sc1ncnc2c1nnn2-c1ccc(F)cc1 (stereo not given) | 70 nM | 3420 nM | –
34 | O=C(CSc1nc2ccccc2c(=O)[nH]1)NCc1ccc(Cl)cc1 | 160 nM | 720 nM | –
35 | CC(=NCc1ccc2c(c1)OCO2)C1=C(O)c2ccccc2C1=O | 400 nM | 6040 nM | –
36 | CCC(C)Nc1ccc(NC(C)CC)cc1 (stereo not given) | 320 nM | 590 nM | –
37 | O=C(CSc1nc2ccccc2c(=O)[nH]1)NC1CCCCC1 | < 10 nM | < 10 nM | –
38 | CC[N+](C)(CC)CCCCOc1ccc2c(c1)C(=O)c1cc(OCCCC[N+](C)(CC)CC)ccc1-2 | 770 nM | 1220 nM | –
39 | CCOC1OC(=O)C(Cl)=C1Nc1ccccc1C (stereo not given) | 2020 nM | 9040 nM | –
